Source: publication PMC6212493, “Development and evaluation of a novel series of Nitroxoline-derived BET inhibitors with antitumor activity in renal cell carcinoma” (Oncogenesis, 2018)
pIC50: −log10 of the molar value. “Also recorded” adds a separate entry of the source.

Experiments:
BRD4-BD1 = biological target: T1, BRD4-BD1 (Homo sapiens, UniProt O60885); experiment: ALPHA screen assay, displacement of BRD4-BD1 from acetylated H4 peptide; type: binding
T1 construct: with the first bromodomain of BRD4 (BRD4-BD1) were solved; 6xHis (N); made in house; host or cells: Escherichia coli BL21 (DE3)
Procedure: (§1) Amplified Luminescent Proximity Homogeneous Assay (ALPHA) screen assay was used to determine the IC50 of compounds for competitive displacement of BRD4_BD1 from the acetylated H4 peptide. As previously described, 2.5 μL compounds and 2.5 μL proteins were added into each well of 384-well plates and incubated at room temperature for 15 min. To start the reaction, 5 μL substrate peptide was added and incubated at room temperature for 5 min. Subsequently, 5 µL nickel-chelate acceptor beads (PerkinElmer) and 5 µL streptavidin-conjugate donor beads (PerkinElmer) were added. After 60 min incubation at room temperature, data were collected by EnVision (PerkinElmer) and analyzed using GraphPad Prism 5.0.

BRD4-BD2 = BRD4-BD2 (Homo sapiens, UniProt O60885); experiment: ALPHA assay, displacement of BRD4-BD2 from acetylated H4 peptide; type: binding
Procedure: (§2) First, we compared the inhibitory activity of BDF-1253 to displace BRD4-BD1 or BRD4-BD2 domain from acetylated H4 peptide using ALPHA assay. […] An in vitro selective assay was also conducted to examine the effect of BDF-1253 at 3 μM on the other BET proteins, other BRD proteins out of BET family (SMACAR, BPTF, PCAF) as well as several epigenetic enzymes.
as §1
IC50 determination of BDF-1253 against BRD4-BD1 and BRD4-BD2 using Alpha Screen method.

BET family proteins = experiment: In vitro selective assay at 3 μM, BET proteins; type: binding
Procedure: as §2
(§3) Determination of inhibition against BET family members, bromodomain proteins out of the BET family as well as several epi-enzymes by BDF-1253 at 3 μM.

[1] = test system: non-BET BRD-containing proteins (SMACAR, BPTF, PCAF) and epigenetic enzymes; experiment: In vitro selective assay at 3 μM, non-BET bromodomain proteins and epi-enzymes; type: biochemical
Procedure: as §2, §3

786-O cells = experiment: Alamar Blue viability assay, 786-O; type: cell-based
Procedure: (§4) RCC cells 786-O, 769-P, A498, and ACHN were purchased from ATCC. All the cells were authenticated by STR profiling at Genesky Biopharma Technology and tested for Mycoplasma contamination. […] For the viability assay, cells were plated on 96-well plates at the density of 0.5–1 × 10^3/well. After cell attachment, various concentrations of compounds and DMSO were added, the plates were incubated for 7 days. After the addition of 10 μL Alamar Blue and incubation for 3 h at 37 °C, fluorescent signals were measured with a PE Envision reader, at the wavelength of 544 nm for excitation and 590 nm for emission. Finally, the percentages of viability were calculated by normalizing against the control.

Caki cells = experiment: Alamar Blue viability assay, Caki; type: cell-based; conditions: 168 h, treatment for 7 days, read-out: IC50, cell viability
ACHN cells = experiment: Alamar Blue viability assay, ACHN; type: cell-based; conditions: Homo sapiens, 168 h, treatment for 7 days, read-out: IC50, cell viability
Procedure: as §4

A498 cells = experiment: Alamar Blue viability assay, A498; type: cell-based; conditions: Homo sapiens, 168 h; A498, treatment for 7 days; read-out: IC50, cell viability
Procedure: as §4

HUVEC normal cell line = experiment: Viability of normal cells, HUVEC; type: cell-based; conditions: at similar concentrations as RCC cells
RCTEC normal cell line = experiment: Viability of normal cells, RCTEC; type: cell-based; conditions: at similar concentrations as RCC cells
Procedure: as §4

786-O xenograft tumor = experiment: RCC xenograft mice model (786-O); type: in vivo, nude mice; conditions: 50 mg/kg intraperitoneally daily
Procedure: All animal experiments were approved by IACUC (Institutional Animal Care and Use Committee) of Shanghai Institute of Materia Medica. Four to six-week-old female nude mice purchased from Silaike Laboratory Animal Ltd. were subcutaneously inoculated with 5 × 10^6 786-O cells in 100 μL PBS. All nude mice were raised under pathogen-free conditions to achieve tumor growth. Sample size of each group (n = 7) was chosen following the instruction by http://www.biomath.info. As long as the tumor sizes reached palpable stage, the mice were randomly divided into two groups (n = 7/group). One group is for compound BDF-1253 treatment trials and the other group is the control group. […] These mice were treated intraperitoneally with either diluted compound BDF-1253 of 50 mg/kg or vehicle on a daily basis. Tumor volume was evaluated every 3 days using Vernier calipers and calculated with the equation: length × width^2 × 0.5. Animals were killed when their tumors reached 2 cm^3.

[2] = test system: c-Myc, Bcl-2, and CDK6 mRNA expression; experiment: Real-time PCR of BET downstream genes in RCC cells; type: cell-based; conditions: relative to DMSO control, normalized to β2-microglobulin
Procedure: Trizol reagent (Vazyme) was used to extract total RNA of ccRCC tumor samples or cells following manufacturer’s instructions. Synthesis of complementary DNA (cDNA) was done using the HiScript® II RT SuperMix (Vazyme). StepOnePlus (Life Technologies) apparatus was applied to carry out quantitative real-time PCR (qPCR). Gene-specific data were normalized to β2-microglobulin and are calculated as relative expression compared to DMSO or control group using the ΔΔCT method.

[3] = test system: c-Myc, Bcl-2, Bax, cleaved-PARP, cleaved-Caspase3 protein abundance; experiment: Western blot of BET downstream and apoptosis proteins in RCC cells; type: cell-based; conditions: immunoblot
Procedure: Protein lysates from tissue samples were obtained using RIPA buffer supplemented with protease and phosphatase inhibitors. For the cellular samples, cells were collected following treatment with DMSO and compounds. Western blot was performed as previously described.[25] The primary antibodies were BRD2 (A302-583A, Bethyl), BRD3 (A302-368A, Bethyl), BRD4 (A301-985A, Bethyl), MYC (sc-40, Santa Cruz Biotechnology), BCL2 (ab7973, Abcam), BAX (ab32503, Abcam), cleaved PARP (Cell Signaling, #5625). The secondary antibodies were anti-rabbit IgG (Jackson, 111-035-003) or anti-mouse IgG (Jackson). HRP substrate (GE Healthcare) was used for the detection of chemical luminescence, and FUJIFILM LAS-4000 was used for image acquisition.

Structure (SMILES) | pIC50 (BRD4-BD1) | selectivity for BRD4-BD1 or BRD4-BD2 domain (BRD4-BD2) | effect on BET family proteins (BET family proteins) | effect on non-BET BRD-containing proteins or other epigenetic enzymes [1] | pIC50 (786-O cells; Homo sapiens, 786-0, 168 h, 786-O, treatment for 7 days, read-out: IC50, cell viability) | effect on RCC cell proliferation (786-O cells; RCC 786-o cells, in words) | pIC50 (Caki cells) | pIC50 (ACHN cells) | pIC50 (A498 cells) | inhibition of normal cell viability (HUVEC normal cell line) | inhibition of normal cell viability (RCTEC normal cell line) | c-Myc expression in tumors (immunoblotting) (786-O xenograft tumor) | tumor size (786-O xenograft tumor; 21 days, 786-O xenograft) | body weight / toxicity (786-O xenograft tumor; during dosing) | mRNA expression levels of c-Myc, Bcl-2, and CDK6 (BET target gene transcription) [2] | PRAP and Caspase3 cleavage and expression of pro-apoptotic protein Bax [3] | protein abundance of c-Myc, Bcl-2 (BRD4 downstream effectors) [3]
CC(=O)Nc1cc(Cn2ccnc2)c2cccc(O)c2n1 [BDF-1253] | 6.54 | no obvious selectivity | selectively inhibited BET family proteins | minimal effects | 5.82 | inhibited the proliferation | 5.45 | 5.68 | 5.86 | little inhibition | little inhibition | reduced | remarkable reduction in tumor size | no obvious loss of body weight or toxicity | inhibited expression; also recorded: dose-dependently decreased | increased PRAP and Caspase3 cleavage and elevated expression of pro-apoptotic protein Bax | reduced after the treatment, in a dose-dependent manner
O=[N+]([O-])c1ccc(O)c2ncccc12 [Nitroxoline] | 6.01 | – | – | – | – | – | – | – | – | – | – | – | – | – | – | – | –
